Positions count from the first letter of the chain named. Where a SMILES comes first, the peptide text is derived from it. Bridges are numbered along the chain shown (N, C = ends).
Columns and labels:
hCTR D287A = biological target: T1, hCTR D287A (Homo sapiens, UniProt P30988, D287A); experiment: IP1 accumulation; type: cell-based; settings: mean ± S.E.M.
T1 construct: c-Myc (N); expressed in transfected cells
T1 sequence (P30988 25-474 D287A): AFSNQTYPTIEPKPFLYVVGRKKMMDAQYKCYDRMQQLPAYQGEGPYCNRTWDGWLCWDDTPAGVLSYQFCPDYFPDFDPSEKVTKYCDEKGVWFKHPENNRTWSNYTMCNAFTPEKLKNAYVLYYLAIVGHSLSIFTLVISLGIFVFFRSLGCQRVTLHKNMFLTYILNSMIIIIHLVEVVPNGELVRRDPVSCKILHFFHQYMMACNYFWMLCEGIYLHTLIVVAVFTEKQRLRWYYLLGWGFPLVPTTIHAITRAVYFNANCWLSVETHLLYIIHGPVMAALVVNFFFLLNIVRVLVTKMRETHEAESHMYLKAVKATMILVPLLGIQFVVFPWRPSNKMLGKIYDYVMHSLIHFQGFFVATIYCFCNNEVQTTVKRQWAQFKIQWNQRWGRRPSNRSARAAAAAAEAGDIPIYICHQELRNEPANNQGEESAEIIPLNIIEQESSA
Description: Cells (2.5 × 10^4 cells/well) were plated into 96 well trays and cultured overnight. Cells were stimulated with increasing concentration of ligands for 60 min in the presence of LiCl. Samples were lysed and endogenous IP1 was measured using an IP-One HTRF® assay kit (CisBio) as specified by the manufacturer. Data were normalized to the maximal response elicited by 100 μM of ATP.
IC50 and Bmax values were estimated from competitive inhibition of ^125I-sCT(8-32) binding using a 3-parameter logistic equation (log(inhibitor versus response)) in Prism (v7; Graphpad). Data were corrected for radioligand occupancy using the Cheng-Prusoff equation in Prism; as such data are reported as pKi. Emax and EC50 were estimated from concentration-response curves using with a 3-parameter logistic equation in Prism (v7). These values are a composite of functional affinity, efficacy and stimulus response coupling. […] Derived τ values were normalized to experimentally determined levels of cell surface expression to provide a measure of efficacy (τc) that is independent of affinity and altered cell surface receptor expression. pKi, pKA and log τc values for mutant receptors were statistically compared to those of the WT receptor using a one-way analysis of variance (ANOVA) and Dunnett’s post-test. […]

hCTR L297A = biological target: T2, hCTR L297A (Homo sapiens, UniProt P30988, L297A); experiment: Heterologous whole cell competition binding; settings: heterologous competition of 125I-sCT(8-32), whole cells, mean ± S.E.M., SEM
T2 construct: c-Myc (N); expressed in transfected cells
T2 sequence (P30988 25-474 L297A): T1 sequence (P30988 25-474 D287A) with A263D, L273A
Procedure, shortened: (§1)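 Overnight competition on intact cells; free ligand washed off; gamma counting. pKi via Cheng-Prusoff correction for radioligand occupancy.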

hCTR M367A = biological target: T3, hCTR M367A (Homo sapiens, UniProt P30988, M367A); experiment: Heterologous whole cell competition binding; settings: heterologous competition of 125I-sCT(8-32), whole cells, mean ± S.E.M., SEM
T3 construct: c-Myc (N); expressed in transfected cells
T3 sequence (P30988 25-474 M367A): T1 sequence (P30988 25-474 D287A) with A263D, M343A
Procedure, shortened: as §1

hCTR T295A = biological target: T4, hCTR T295A (Homo sapiens, UniProt P30988, T295A); experiment: Heterologous whole cell competition binding; settings: heterologous competition of 125I-sCT(8-32), whole cells, mean ± S.E.M., SEM
T4 construct: c-Myc (N); expressed in transfected cells
T4 sequence (P30988 25-474 T295A): T1 sequence (P30988 25-474 D287A) with A263D, T271A
Procedure, shortened: as §1

**Q.** For `CSCC[C@H](NC(=O)CNC(=O)[C@H](CO)NC(=O)[C@H](Cc1ccccc1)NC(=O)[C@H](CCCNC(=N)N)NC(=O)[C@H](Cc1c[nH]cn1)NC(=O)[C@H](Cc1ccccc1)NC(=O)[C@H](CC(N)=O)NC(=O)[C@H](CC(N)=O)NC(=O)[C@H](CC(C)C)NC(=O)[C@H](CC(N)=O)NC(=O)[C@H](CCCNC(=N)N)NC(=O)[C@H](Cc1c[nH]c2ccccc12)NC(=O)[C@H](Cc1ccc(O)cc1)NC(=O)[C@H](C)NC(=O)[C@H](CO)NC(=O)[C@H](CC(C)C)NC(=O)[C@@H](NC(=O)[C@@H]1CSSC[C@H](N)C(=O)N[C@@H](CO)C(=O)N[C@@H](CC(N)=O)C(=O)N[C@@H](CC(C)C)C(=O)N[C@@H](CO)C(=O)N[C@@H]([C@@H](C)O)C(=O)N1)C(C)C)C(=O)NCC(=O)N[C@@H](Cc1ccccc1)C(=O)NCC(=O)N1CCC[C@H]1C(=O)N[C@@H](CCC(=O)O)C(=O)N[C@H](C(=O)N1CCC[C@H]1C(N)=O)[C@@H](C)O` [pCT] (H-CSNLSTCVLSAYWRNLNNFHRFSGMGFGPETP-NH2; disulfide 1-7), which EC50 (hCTR D287A; IP1, CV1-FlpIn cells, 60 min, LiCl) is on record?
**A.** 0.00372 µM

**Q.** And the Emax (hCTR D287A; IP1 maximal response, SEM)?
**A.** 56 ± 7%

**Q.** What about the Ki (hCTR L297A) of the same compound?
**A.** 0.0155 µM

**Q.** And the Ki (hCTR M367A)?
**A.** 0.0214 µM

**Q.** What about the Ki (hCTR T295A) of the same compound?
**A.** 0.0324 µM

Reference: article PMC5908784, “Extracellular loops 2 and 3 of the calcitonin receptor selectively modify agonist binding and efficacy” (Biochemical Pharmacology, 2018)
